Key:
Experiment in all cases: in vitro susceptibility, MIC by mini broth dilution
Assay type in all cases: cell-based
[1] = system: Staphylococcus aureus CVCC26003; settings: strain CVCC26003
In short: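 MICs were determined by mini broth dilution under NCCLS standards in CAMHB, using revived S. aureus CVCC26003 subcultured 20 h at 35° C. Compounds were two-fold serially diluted in DMSO across 11 wells, with duplicate rows. Bacterial suspension was diluted 1:200 in medium before inoculation.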

[2] = system: Actinobacillus pleuropneumoniae CVCC262; settings: strain CVCC262
In short: (§1)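 MICs determined by mini broth dilution following NCCLS standards, using two-fold serial dilutions of compound in DMSO across 11 gradients, in duplicate rows. Strains were revived and subcultured at 35 °C for 20 h. Bacterial suspension was diluted 1:200 in liquid medium.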

[3] = system: Streptococcus equines CVCC556; settings: strain CVCC556
In short: as §1

Haemophilus parasuis = system: Haemophilus parasuis
In short: as §1

[4] = system: Pasteurella multocida CVCC399; settings: strain CVCC399
In short: as §1

Row | SMILES | MIC values, Staphylococcus aureus CVCC26003 [1] | MIC values, Actinobacillus pleuropneumoniae CVCC262 [2] | MIC values, Streptococcus equines CVCC556 [3] | MIC values, Haemophilus parasuis (Haemophilus parasuis) | MIC values, Pasteurella multocida CVCC399 [4]
1 | CCCN1CC(C)C(O)C(C)(O)C(CC)OC(=O)C(C)C(OC2CC(C)(OC)C(O)(CNC(CO)CO)C(C)O2)C(C)C(OC2OC(C)CC(N(C)C)C2O)C(C)(O)CC1C (stereo not shown) [syzx-145] | 1 ug/mi | 64 ug/mi | 0.5 ug/mi | 0.5 ug/mi | 2 ug/mi
2 | CCCN1C[C@H](C)[C@@H](O)[C@](C)(O)[C@@H](CC)OC(=O)[C@H](C)[C@@H](O[C@H]2C[C@@](C)(OC)[C@](O)(CNC(CC)C(=O)O)[C@H](C)O2)[C@H](C)[C@@H](O[C@@H]2O[C@H](C)C[C@H](N(C)C)[C@H]2O)[C@](C)(O)C[C@H]1C (stereo partly shown) [syzx-141] | 0.25 ug/mi | 0.25 ug/mi | 0.25 ug/mi | 0.25 ug/mi | 1 ug/mi
3 | CCCN1C[C@H](C)[C@@H](O)[C@](C)(O)[C@@H](CC)OC(=O)[C@H](C)[C@@H](O[C@H]2C[C@@](C)(OC)[C@](O)(CNc3ccc(Cl)cc3C)[C@H](C)O2)[C@H](C)[C@@H](O[C@@H]2O[C@H](C)C[C@H](N(C)C)[C@H]2O)[C@](C)(O)C[C@H]1C [syzx-197] | 0.25 ug/mi | 0.5 ug/mi | 0.25 ug/mi | 0.25 ug/mi | 1 ug/mi
4 | CCCN1C[C@H](C)[C@@H](O)[C@](C)(O)[C@@H](CC)OC(=O)[C@H](C)[C@@H](O[C@H]2C[C@@](C)(OC)[C@](O)(CNc3cc(F)ccc3[N+](=O)[O-])[C@H](C)O2)[C@H](C)[C@@H](O[C@@H]2O[C@H](C)C[C@H](N(C)C)[C@H]2O)[C@](C)(O)C[C@H]1C [syzx-226] | 2 ug/mi | 4 ug/mi | 0.25 ug/mi | 4 ug/mi | 8 ug/mi
5 | CC[C@H]1OC(=O)[C@H](C)[C@@H](O[C@H]2C[C@@](C)(OC)[C@](O)(CNCc3ccco3)[C@H](C)O2)[C@H](C)[C@@H](O[C@@H]2O[C@H](C)C[C@H](N(C)C)[C@H]2O)[C@](C)(O)C[C@@H](C)NC[C@H](C)[C@@H](O)[C@]1(C)O [syzx-71, (2R,3S,4R,5S,8R,10R,11R,12S,13S,14R)-13-[(2,6-dideoxy-3-C-methyl-3-O-methyl-4-C-[(2-furfuryl-amino)-methyl]-α-L-ribopyranosyl)oxy]-2-ethyl-3,4,10-trihydroxy-3,5,8,10,12,14-hexamethyl-11-[[3,4,6-trideoxy-3-(dimethylamino)-β-D-xylo-hexopyranosy]oxy]-1-oxa-7-azacyclopentadecan-15-one] | 8 ug/mi | 16 ug/mi | ≦0.25 ug/mi | 8 ug/mi | ≦0.25 ug/mi
6 | CCCN1C[C@H](C)[C@@H](O)[C@](C)(O)[C@@H](CC)OC(=O)[C@H](C)[C@@H](O[C@H]2C[C@@](C)(OC)[C@](O)(CNCCCC(=O)O)[C@H](C)O2)[C@H](C)[C@@H](O[C@@H]2O[C@H](C)C[C@H](N(C)C)[C@H]2O)[C@](C)(O)C[C@H]1C [syzx-142] | 0.25 ug/mi | 0.25 ug/mi | 0.5 ug/mi | 0.25 ug/mi | 0.5 ug/mi
7 | C#CC=C(C)NC[C@]1(O)[C@H](C)O[C@@H](O[C@H]2[C@H](C)[C@@H](O[C@@H]3O[C@H](C)C[C@H](N(C)C)[C@H]3O)[C@](C)(O)C[C@@H](C)NC[C@H](C)[C@@H](O)[C@](C)(O)[C@@H](CC)OC(=O)[C@@H]2C)C[C@@]1(C)OC [syzx-62] | 0.5 ug/mi | 8 ug/mi | ≦0.25 ug/mi | ≦0.25 ug/mi | 0.5 ug/mi
8 | CCCN1C[C@H](C)[C@@H](O)[C@](C)(O)[C@@H](CC)OC(=O)[C@H](C)[C@@H](O[C@H]2C[C@@](C)(OC)[C@](O)(CNCCCO)[C@H](C)O2)[C@H](C)[C@@H](O[C@@H]2O[C@H](C)C[C@H](N(C)C)[C@H]2O)[C@](C)(O)C[C@H]1C [syzx-146] | 0.25 ug/mi | 0.25 ug/mi | 0.25 ug/mi | 0.25 ug/mi | 0.5 ug/mi
9 | CC[C@H]1OC(=O)[C@H](C)[C@@H](O[C@H]2C[C@@](C)(OC)[C@](O)(CNCc3cccc(N)c3)[C@H](C)O2)[C@H](C)[C@@H](O[C@@H]2O[C@H](C)C[C@H](N(C)C)[C@H]2O)[C@](C)(O)C[C@@H](C)NC[C@H](C)[C@@H](O)[C@]1(C)O [syzx-72, (2R,3S,4R,5S,8R,10R,11R,12S,13S,14R)-13-[(2,6-dideoxy-3-C-methyl-3-O-methyl-4-C-[(3-aminobenzyl-amino)-methyl]-α-L-ribopyranosyl)oxy]-2-ethyl-3,4,10-trihydroxy-3,5,8,10,12,14-hexamethyl-11-[[3,4,6-trideoxy-3-(dimethylamino)-β-D-xylo-hexopyranosy]oxy]-1-oxa-7-azacyclopentadecan-15-one] | 1 ug/mi | 16 ug/mi | ≦0.25 ug/mi | 0.25 ug/mi | 1 ug/mi
10 | CCCN1C[C@H](C)[C@@H](O)[C@](C)(O)[C@@H](CC)OC(=O)[C@H](C)[C@@H](O[C@H]2C[C@@](C)(OC)[C@](O)(CN3CCCC3)[C@H](C)O2)[C@H](C)[C@@H](O[C@@H]2O[C@H](C)C[C@H](N(C)C)[C@H]2O)[C@](C)(O)C[C@H]1C [syzx-209] | 0.25 ug/mi | 0.25 ug/mi | 0.25 ug/mi | 0.25 ug/mi | 0.25 ug/mi
11 | CCCN1C[C@H](C)[C@@H](O)[C@](C)(O)[C@@H](CC)OC(=O)[C@H](C)[C@@H](O[C@H]2C[C@@](C)(OC)[C@](O)(CNCc3cc(F)cc(F)c3)[C@H](C)O2)[C@H](C)[C@@H](O[C@@H]2O[C@H](C)C[C@H](N(C)C)[C@H]2O)[C@](C)(O)C[C@H]1C [syzx-155] | 0.25 ug/mi | 0.25 ug/mi | 0.25 ug/mi | 0.25 ug/mi | 0.5 ug/mi
12 | CCCN1C[C@H](C)[C@@H](O)[C@](C)(O)[C@@H](CC)OC(=O)[C@H](C)[C@@H](O[C@H]2C[C@@](C)(OC)[C@](O)(CN(CC)CC)[C@H](C)O2)[C@H](C)[C@@H](O[C@@H]2O[C@H](C)C[C@H](N(C)C)[C@H]2O)[C@](C)(O)C[C@H]1C [syzx-103] | 0.25 ug/mi | 0,25 ug/mi | 0.25 ug/mi | 0.25 ug/mi | 1 ug/mi
13 | CCCN1C[C@H](C)[C@@H](O)[C@](C)(O)[C@@H](CC)OC(=O)[C@H](C)[C@@H](O[C@H]2C[C@@](C)(OC)[C@](O)(CNCc3ccc(F)cc3F)[C@H](C)O2)[C@H](C)[C@@H](O[C@@H]2O[C@H](C)C[C@H](N(C)C)[C@H]2O)[C@](C)(O)C[C@H]1C [syzx-131] | 0.25 ug/mi | 0.25 ug/mi | 0.25 ug/mi | 0.25 ug/mi | 0.5 ug/mi
14 | CC[C@H]1OC(=O)[C@H](C)[C@@H](O[C@H]2C[C@@](C)(OC)[C@](O)(CNCC3CCNCC3)[C@H](C)O2)[C@H](C)[C@@H](O[C@@H]2O[C@H](C)C[C@H](N(C)C)[C@H]2O)[C@](C)(O)C[C@@H](C)NC[C@H](C)[C@@H](O)[C@]1(C)O [syzx-93] | 32 ug/mi | 16 ug/mi | 1 ug/mi | 8 ug/mi | 64 ug/mi

Source: patent publication US9765105B2, “Macrolide compound” (Pulike Biological Engineering, Inc., priority 2013, dated 2017)
